Results from US9695155B2, “Herbicidal substituted pyrimidinyloxy benzene compounds” (E. I. DU PONT DE NEMOURS AND COMPANY, priority 2013, dated 2017).

Experiments:
field violet [1] = test: Test D preemergence; type: in vivo, Viola arvensis; conditions: Viola arvensis, pre-emergence; for pest or weed control at 16 g/ha: 16 g ai/ha, scale 0 (no effect) to 100 (complete control), read-out: Plant response rating, Field Violet; for pest or weed control at 31 g/ha: 31 g ai/ha; for pest or weed control at 31 g/ha / pest or weed control at 62 g/ha / pest or weed control at 125 g/ha: scale 0-100, read-out: Plant response rating, Field Violet; for pest or weed control at 62 g/ha: 62 g ai/ha; for pest or weed control at 125 g/ha: 125 g ai/ha
Text: (§1) Seeds of plant species selected from bluegrass (annual bluegrass, Poa annua), blackgrass (Alopecurus myosuroides), canarygrass (littleseed canarygrass, Phalaris minor), chickweed (common chickweed, Stellaria media), galium (catchweed bedstraw, Galium aparine), bromegrass, downy (downy bromegrass, Bromus tectorum), field poppy (Papaver rhoeas), field violet (Viola arvensis), green foxtail (Setaria viridis), deadnettle (henbit deadnettle, Lamium amplexicaule), Italian ryegrass (Lolium multiflorum), kochia (Kochia scoparia), lambsquarters (Chenopodium album), oilseed rape (Brassica napus), pigweed (Amaranthus retroflexus), chamomile (scentless chamomile, Matricaria inodora), Russian thistle (Salsola kali), speedwell (bird's-eye speedwell, Veronica persica), spring barley (Hordeum vulgare), spring wheat (Triticum aestivum), wild buckwheat (Polygonum convolvulus), wild mustard (Sinapis arvensis), wild oat (Avena fatua), wild radish (Raphanus raphanistrum), windgrass (Apera spica-venti), winter barley (Hordeum vulgare), and winter wheat (Triticum aestivum) were planted into a silt loam soil and treated preemergence with test chemicals formulated in a non-phytotoxic solvent mixture which included a surfactant.
(§2) At the same time, these species were planted in pots containing Redi-Earth® planting medium (Scotts Company, 14111 Scottslawn Road, Marysville, Ohio 43041) comprising spaghnum peat moss, vermiculite, wetting agent and starter nutrients and treated with postemergence applications of the test chemicals formulated in the same manner. Plants ranged in height from 2 to 18 cm (1- to 4-leaf stage). Treated plants and controls were maintained in a controlled growth environment for 7 to 21 days after which time all species were compared to controls and visually evaluated. Plant response ratings, summarized in Table D, are based on a scale of 0 to 100 where 0 is no effect and 100 is complete control. A dash (-) response means no test result.

canarygrass = test: Test D postemergence; type: in vivo, Phalaris minor; conditions: Phalaris minor, post-emergence; for pest or weed control at 16 g/ha: 16 g ai/ha, scale 0-100, read-out: Plant response rating, Canarygrass; for pest or weed control at 31 g/ha: 31 g ai/ha; for pest or weed control at 31 g/ha / pest or weed control at 62 g/ha / pest or weed control at 125 g/ha: scale 0 to 100 (0 no effect, 100 complete control), read-out: Plant response rating, Canarygrass; for pest or weed control at 62 g/ha: 62 g ai/ha; for pest or weed control at 125 g/ha: 125 g ai/ha
Text: as §1, §2

kochia = test: Test D postemergence; type: in vivo, Kochia scoparia; conditions: Bassia scoparia, post-emergence; for pest or weed control at 16 g/ha: 16 g ai/ha, scale 0-100, read-out: Plant response rating, Kochia; for pest or weed control at 31 g/ha: 31 g ai/ha; for pest or weed control at 31 g/ha / pest or weed control at 62 g/ha / pest or weed control at 125 g/ha: scale 0 to 100 (0 no effect, 100 complete control), read-out: Plant response rating, Kochia; for pest or weed control at 62 g/ha: 62 g ai/ha; for pest or weed control at 125 g/ha: 125 g ai/ha
Text: as §1, §2

field violet [2] = test: Test D postemergence; type: in vivo, Viola arvensis; conditions: Viola arvensis, post-emergence; for pest or weed control at 16 g/ha: 16 g ai/ha, scale 0-100, read-out: Plant response rating, Field Violet; for pest or weed control at 31 g/ha: 31 g ai/ha; for pest or weed control at 31 g/ha / pest or weed control at 62 g/ha / pest or weed control at 125 g/ha: scale 0 to 100 (0 no effect, 100 complete control), read-out: Plant response rating, Field Violet; for pest or weed control at 62 g/ha: 62 g ai/ha; for pest or weed control at 125 g/ha: 125 g ai/ha
Text: as §1, §2

pigweed = test: Test D postemergence; type: in vivo, Amaranthus retroflexus; conditions: Amaranthus retroflexus, post-emergence; for pest or weed control at 16 g/ha: 16 g ai/ha, scale 0-100, read-out: Plant response rating, Pigweed; for pest or weed control at 31 g/ha: 31 g ai/ha; for pest or weed control at 31 g/ha / pest or weed control at 62 g/ha / pest or weed control at 125 g/ha: scale 0 to 100 (0 no effect, 100 complete control), read-out: Plant response rating, Pigweed; for pest or weed control at 62 g/ha: 62 g ai/ha; for pest or weed control at 125 g/ha: 125 g ai/ha
Text: as §1, §2

oilseed rape = test: Test D preemergence; type: in vivo, Brassica napus; conditions: Brassica napus, pre-emergence; for plant injury at 16 g/ha: 16 g ai/ha, scale 0 (no effect) to 100 (complete control), read-out: Plant response rating, Oilseed Rape; for plant injury at 31 g/ha: 31 g ai/ha; for plant injury at 31 g/ha / plant injury at 62 g/ha / plant injury at 125 g/ha: scale 0-100, read-out: Plant response rating, Oilseed Rape; for plant injury at 62 g/ha: 62 g ai/ha; for plant injury at 125 g/ha: 125 g ai/ha
Text: as §1, §2

spring wheat = test: Test D preemergence; type: in vivo, Triticum aestivum; conditions: Triticum aestivum, pre-emergence; for plant injury at 16 g/ha: 16 g ai/ha; for plant injury at 16 g/ha / plant injury at 31 g/ha: scale 0 (no effect) to 100 (complete control), read-out: Plant response rating, Wheat, Spring; for plant injury at 31 g/ha: 31 g ai/ha; for plant injury at 62 g/ha: 62 g ai/ha; for plant injury at 62 g/ha / plant injury at 125 g/ha: scale 0-100, read-out: Plant response rating, Wheat, Spring; for plant injury at 125 g/ha: 125 g ai/ha
Text: as §1, §2

winter wheat = test: Test D preemergence; type: in vivo, Triticum aestivum; conditions: Triticum aestivum, pre-emergence; for plant injury at 16 g/ha: 16 g ai/ha; for plant injury at 16 g/ha / plant injury at 31 g/ha: scale 0 (no effect) to 100 (complete control), read-out: Plant response rating, Wheat, Winter; for plant injury at 31 g/ha: 31 g ai/ha; for plant injury at 62 g/ha: 62 g ai/ha; for plant injury at 62 g/ha / plant injury at 125 g/ha: scale 0-100, read-out: Plant response rating, Wheat, Winter; for plant injury at 125 g/ha: 125 g ai/ha
Text: as §1, §2

speedwell = test: Test D preemergence; type: in vivo, Veronica persica; conditions: Veronica persica, pre-emergence; for pest or weed control at 16 g/ha: 16 g ai/ha; for pest or weed control at 16 g/ha / pest or weed control at 31 g/ha: scale 0 (no effect) to 100 (complete control), read-out: Plant response rating, Speedwell; for pest or weed control at 31 g/ha: 31 g ai/ha; for pest or weed control at 62 g/ha: 62 g ai/ha; for pest or weed control at 62 g/ha / pest or weed control at 125 g/ha: scale 0-100, read-out: Plant response rating, Speedwell; for pest or weed control at 125 g/ha: 125 g ai/ha
Text: as §1, §2

bluegrass = test: Test D preemergence; type: in vivo, Poa annua; conditions: Poa annua, pre-emergence; for pest or weed control at 16 g/ha: 16 g ai/ha, scale 0 (no effect) to 100 (complete control), read-out: Plant response rating, Bluegrass; for pest or weed control at 31 g/ha: 31 g ai/ha; for pest or weed control at 31 g/ha / pest or weed control at 62 g/ha / pest or weed control at 125 g/ha: scale 0-100, read-out: Plant response rating, Bluegrass; for pest or weed control at 62 g/ha: 62 g ai/ha; for pest or weed control at 125 g/ha: 125 g ai/ha
Text: as §1, §2

| Compound | pest or weed control at 16 g/ha (field violet [1]) | pest or weed control at 62 g/ha (field violet [1]) | pest or weed control at 125 g/ha (field violet [1]) | pest or weed control at 16 g/ha (canarygrass) | pest or weed control at 31 g/ha (canarygrass) | pest or weed control at 62 g/ha (canarygrass) | pest or weed control at 125 g/ha (canarygrass) | pest or weed control at 16 g/ha (kochia) | pest or weed control at 31 g/ha (kochia) | pest or weed control at 62 g/ha (kochia) | pest or weed control at 125 g/ha (kochia) | pest or weed control at 16 g/ha (field violet [2]) | pest or weed control at 31 g/ha (field violet [2]) | pest or weed control at 62 g/ha (field violet [2]) | pest or weed control at 125 g/ha (field violet [2]) | pest or weed control at 16 g/ha (pigweed) | pest or weed control at 31 g/ha (pigweed) | pest or weed control at 62 g/ha (pigweed) | pest or weed control at 125 g/ha (pigweed) | plant injury at 16 g/ha (oilseed rape) | other results |
| --- | --- | --- | --- | --- | --- | --- | --- | --- | --- | --- | --- | --- | --- | --- | --- | --- | --- | --- | --- | --- | --- |
| FC(F)(F)COc1cnn(-c2ccccc2Oc2ncc(Cl)cn2)c1 [Compound 138, 5-chloro-2-[2-[4-(2,2,2-trifluoroethoxy)-1H-pyrazol-1-yl]phenoxy]pyrimidine] | 70% | 70% | 75% | 5% | 10% | 10% | 15% | 25% | 40% | 55% | 75% | 25% | 50% | 65% | 75% | 65% | 70% | 90% | 90% | 35% | pest or weed control at 31 g/ha (field violet [1]): 25%; plant injury at 31 g/ha (oilseed rape): 30%; plant injury at 62 g/ha (oilseed rape): 50%; plant injury at 125 g/ha (oilseed rape): 65%; plant injury at 16 g/ha (spring wheat): 0%; plant injury at 31 g/ha (spring wheat): 10%; plant injury at 62 g/ha (spring wheat): 15%; plant injury at 125 g/ha (spring wheat): 15%; plant injury at 16 g/ha (winter wheat): 0%; plant injury at 31 g/ha (winter wheat): 5%; plant injury at 62 g/ha (winter wheat): 5%; plant injury at 125 g/ha (winter wheat): 5%; pest or weed control at 16 g/ha (speedwell): 70%; pest or weed control at 31 g/ha (speedwell): 100%; pest or weed control at 62 g/ha (speedwell): 100%; pest or weed control at 125 g/ha (speedwell): 100%; pest or weed control at 16 g/ha (bluegrass): 0%; pest or weed control at 31 g/ha (bluegrass): 0%; pest or weed control at 62 g/ha (bluegrass): 0%; pest or weed control at 125 g/ha (bluegrass): 10% |
| FC(F)(F)c1cn(-c2ccccc2Oc2ncc(Cl)cn2)nn1 [Compound 166, 5-chloro-2-[2-[4-(trifluoromethyl)-1H-1,2,3-triazol-1-yl]phenoxy]pyrimidine] | 70% | 100% | 100% | 20% | 35% | 50% | 55% | 65% | 65% | 90% | 95% | 60% | 65% | 70% | 85% | 80% | 85% | 95% | 95% | 35% | pest or weed control at 31 g/ha (field violet [1]): 100%; plant injury at 31 g/ha (oilseed rape): 50%; plant injury at 62 g/ha (oilseed rape): 100%; plant injury at 125 g/ha (oilseed rape): 100%; plant injury at 16 g/ha (spring wheat): 0%; plant injury at 31 g/ha (spring wheat): 0%; plant injury at 62 g/ha (spring wheat): 10%; plant injury at 125 g/ha (spring wheat): 60%; plant injury at 16 g/ha (winter wheat): 0%; plant injury at 31 g/ha (winter wheat): 0%; plant injury at 62 g/ha (winter wheat): 0%; plant injury at 125 g/ha (winter wheat): 25%; pest or weed control at 16 g/ha (speedwell): 100%; pest or weed control at 31 g/ha (speedwell): 100%; pest or weed control at 62 g/ha (speedwell): 100%; pest or weed control at 125 g/ha (speedwell): 100%; pest or weed control at 16 g/ha (bluegrass): 5%; pest or weed control at 31 g/ha (bluegrass): 20%; pest or weed control at 62 g/ha (bluegrass): 65%; pest or weed control at 125 g/ha (bluegrass): 100% |
| Fc1cccc(Oc2ncc(Cl)cn2)c1-n1cc(Br)cn1 [Compound 178, 2-[2-(4-bromo-1H-pyrazol-1-yl)-3-fluorophenoxy]-5-chloropyrimidine] | 20% | 90% | 100% | 5% | 15% | 20% | 35% | 60% | 70% | 75% | 85% | 50% | 60% | 65% | 70% | 75% | 80% | 85% | 90% | 65% | plant injury at 31 g/ha (oilseed rape): 75%; plant injury at 125 g/ha (oilseed rape): 100%; pest or weed control at 16 g/ha (speedwell): 100%; pest or weed control at 31 g/ha (speedwell): 100%; pest or weed control at 62 g/ha (speedwell): 100%; pest or weed control at 125 g/ha (speedwell): 100%; pest or weed control at 16 g/ha (bluegrass): 0%; pest or weed control at 31 g/ha (bluegrass): 10%; pest or weed control at 62 g/ha (bluegrass): 20%; pest or weed control at 125 g/ha (bluegrass): 70% |
